Results as given in PMC9820316, “Novel Arylpiperazine Derivatives of Salicylamide with α1-Adrenolytic Properties Showed Antiarrhythmic and Hypotensive Properties in Rats” (International Journal of Molecular Sciences, 2022).
Marks after values point to notes of the source that are not given here.

How the values were obtained:
[1] = system: normal ECG in rats; assay: Effect on a normal electrocardiogram in rats; format: in vivo, rat; conditions: 5 mg/kg iv; for HR—heart rate / PQ interval / QRS complex / QTc (Bazzett's formula): mean ± SD; for PQ interval / QRS complex / QTc (Bazzett's formula): in ms (unit assumed)
Protocol: The procedure was performed to exclude the negative effects of the tested compounds on the normal ECG, according to the method described earlier. […] Firstly, animals were anesthetized with thiopental (75 mg/kg ip). […] The influence on PQ, QTc interval, QRS complex, and heart rate was evaluated. The Bazzett’s formula: QTc = QT/√RR was used to calculate QTc. All the studied compounds were administered at a dose of 5 mg/kg.

[2] = system: adrenaline-induced arrhythmia model in rats; assay: Therapeutic antiarrhythmic activity in adrenaline-induced arrhythmia; conditions: 5 mg/kg iv immediately after adrenaline 20 µg/kg; number of animals with event
Protocol: The experiments were carried out according to the method described by Szekeres and Papp [71]. The heart rhythm disturbances, such as extrasystoles, conduction blocks, and bradycardia, were induced by iv injection of adrenaline (20 µg/kg) to anesthetized rats (thiopental, 75 mg/kg, ip). […] The Aspel ASCARD apparatus (standard II lead, with a tape of speed 50 mm/s and voltage calibration of 1 mV = 1 cm) was used for the ECG measurements. The ECG was recorded during the first 2 min and in the 5th, 10th, and 15th min after the adrenaline injection (Figure 3B). The lack or decreased amount of extrasystoles, atrioventricular blocks, and bradycardia in the ECG recordings compared to the control group was the criterion of antiarrhythmic activity [72].
Automated ECG waveform analysis was evaluated as described earlier [55], using Eleven Maze software version 0.1 from Eleven Products Sp. z o.o. […] The software, under expert supervision, recognized and classified the heart rhythm irregularities. It also calculated PQ, QRS, QTc, and rate parameters.

[3] = system: adrenaline-induced arrhythmia model in rats; assay: Prophylactic antiarrhythmic activity in adrenaline-induced arrhythmia; format: in vivo, rat; conditions: for Blocks / Bradycardia / Extrasystoles / Mortality: number of animals with event
[4] = biological target: α2-adrenergic receptors; assay: α2-adrenoceptor radioligand binding assay ([3H]-clonidine, rat cortex); conditions: rat cortex tissue, mean ± SEM, n.a. = did not bind at 10^−5 M
In short: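 Rat cerebral cortex membranes in 50 mM Tris-HCl pH 7.6, with 7–8 compound concentrations in duplicate. Nonspecific binding defined by 10 μM phentolamine for [3H]-prazosin (α1) or 10 μM clonidine for [3H]-clonidine (α2). Filtration and scintillation counting; Ki calculated.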

[5] = system: aconitine-induced arrhythmia model in rats; assay: Prophylactic antiarrhythmic activity in aconitine-induced arrhythmia; format: in vivo, rat; conditions: 5 mg/kg iv 15 min before aconitine 20 μg/kg; number of animals with event
[6] = system: calcium chloride-induced arrhythmia model in rats; assay: Prophylactic antiarrhythmic activity in calcium chloride-induced arrhythmia; format: in vivo, rat; conditions: 5 mg/kg iv 15 min before calcium chloride 140 mg/kg; number of animals with event
[7] = system: normotensive rats; assay: Influence on blood pressure in the normotensive rats; format: in vivo, rat; conditions: for DBP—diastolic blood pressure / SBP—systolic blood pressure: mean ± SD
In short: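 Anaesthetised (thiopental 75 mg/kg ip) normotensive Wistar rats with right carotid artery cannulated for direct pressure recording. Compounds given iv after 15 min stabilisation. Systolic and diastolic blood pressure were monitored.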

[8] = 0 min (prior to administration)
[9] = 0.25 mg/kg iv 15 min before adrenaline 20 μg/kg
[10] = 0.5 mg/kg iv 15 min before adrenaline 20 μg/kg
[11] = 1 mg/kg iv 15 min before adrenaline 20 μg/kg
[12] = 2.5 mg/kg iv, 0 min (before administration)
[13] = 5.0 mg/kg iv, 0 min (before administration)

## COc1ccccc1N1CCN(Cc2ccc(COc3ccccc3C(N)=O)cc2)CC1.Cl [JJGW12, 2-[(4-{[4-(2-metoxyphenyl)piperazin-1-ylo]methyl}phenyl)metoxy}benzamide hydrochloride]
[1]
  effect on the heart rate during the ECG recording: did not affect the heart rate
[1]; [8]
  HR—heart rate: 254.6 ± 41.2
  PQ interval: 44.1 ± 6.2
  QRS complex: 41.9 ± 2.1
  QTc (Bazzett's formula): 190.8 ± 15.2
[1]; 5 min
  HR—heart rate: 256.8 ± 47.1
  PQ interval: 43.6 ± 1.2
  QRS complex: 44.5 ± 3.6
  QTc (Bazzett's formula): 194.3 ± 16.8
[1]; 10 min
  HR—heart rate: 255.2 ± 53.6
  PQ interval: 45.9 ± 2.4
  QRS complex: 44.2 ± 2.3
  QTc (Bazzett's formula): 190.3 ± 25.9
[1]; 15 min
  HR—heart rate: 250.2 ± 51.5
  PQ interval: 45.5 ± 3.1
  QRS complex: 45.2 ± 5.9
  QTc (Bazzett's formula): 195.8 ± 25.5
[2]
  Blocks: 6/6
  Bradycardia: 6/6
  Mortality: 6/6
[3]; [9]
  Blocks: 6/6
  Bradycardia: 5/6
  Extrasystoles: 6/6
  Mortality: 3/6
[3]; [10]
  Blocks: 4/5
  Bradycardia: 3/5
  Extrasystoles: 4/5
  Mortality: 0/5
[3]; [11]
  Blocks: 3/5
  Bradycardia: 1/5
  Extrasystoles: 3/5
  Mortality: 0/5
[3]; prophylactic, iv 15 min before adrenaline 20 μg/kg, confidence limits in brackets (Litchfield and Wilcoxon)
  ED50: 0.44 (0.10–1.98) mg/kg
[4]
  Adrenergic Receptors—pKi α2: 6.11 ± 0.01
[5]
  Blocks: 5/6
  Bradycardia: 6/6
  Extrasystoles: 6/6
  Fibrillations: 5/6
  Mortality: 6/6
[6]
  Blocks: 6/6
  Bradycardia: 6/6
  Extrasystoles: 6/6
  Fibrillations: 4/6
  Mortality: 6/6
[7]; [12]
  DBP—diastolic blood pressure: 95.0 ± 16.0 mmHg
  SBP—systolic blood pressure: 122.2 ± 15.6 mmHg
[7]; 2.5 mg/kg iv, 5 min
  DBP—diastolic blood pressure: 94.5 ± 16.5 mmHg
  SBP—systolic blood pressure: 120.7 ± 13.8 mmHg
[7]; 2.5 mg/kg iv, 10 min
  DBP—diastolic blood pressure: 87.5 ± 23.0 mmHg
  SBP—systolic blood pressure: 114.5 ± 10.6 mmHg
[7]; 2.5 mg/kg iv, 20 min
  DBP—diastolic blood pressure: 83.5 ± 22.4 mmHg
  SBP—systolic blood pressure: 109.7 ± 9.3 mmHg
[7]; 2.5 mg/kg iv, 30 min
  DBP—diastolic blood pressure: 84.0 ± 21.4 mmHg
  SBP—systolic blood pressure: 106.5 ± 13.1 mmHg
[7]; 2.5 mg/kg iv, 40 min
  DBP—diastolic blood pressure: 87.8 ± 16.7 mmHg
  SBP—systolic blood pressure: 108.8 ± 11.8 mmHg
[7]; 2.5 mg/kg iv, 50 min
  DBP—diastolic blood pressure: 89.3 ± 13.4 mmHg
  SBP—systolic blood pressure: 110.0 ± 7.5 mmHg
[7]; 2.5 mg/kg iv, 60 min
  DBP—diastolic blood pressure: 89.2 ± 13.9 mmHg
  SBP—systolic blood pressure: 110.5 ± 8.1 mmHg
[7]; [13]
  DBP—diastolic blood pressure: 95.7 ± 6.0 mmHg
  SBP—systolic blood pressure: 122.5 ± 11.9 mmHg
[7]; 5 mg/kg iv, 50th min since administration
  decrease of the systolic blood pressure: 13%
[7]; 5.0 mg/kg iv, 5 min
  DBP—diastolic blood pressure: 87.7 ± 7.0 mmHg
  SBP—systolic blood pressure: 120.7 ± 9.8 mmHg
[7]; 5.0 mg/kg iv, 10 min
  DBP—diastolic blood pressure: 89.3 ± 8.1 mmHg
  SBP—systolic blood pressure: 114.5 ± 9.1 mmHg
[7]; 5.0 mg/kg iv, 20 min
  DBP—diastolic blood pressure: 88.5 ± 9.0 mmHg
  SBP—systolic blood pressure: 112.8 ± 10.0 mmHg
[7]; 5.0 mg/kg iv, 30 min
  DBP—diastolic blood pressure: 87.8 ± 8.8 mmHg
  SBP—systolic blood pressure: 111.5 ± 10.4 mmHg
[7]; 5.0 mg/kg iv, 40 min
  DBP—diastolic blood pressure: 87.8 ± 8.7 mmHg
  SBP—systolic blood pressure: 113.0 ± 11.9 mmHg
[7]; 5.0 mg/kg iv, 50 min
  DBP—diastolic blood pressure: 85.8 ± 8.1 mmHg
  SBP—systolic blood pressure: 107.0 ± 12.7 ^a mmHg
[7]; 5.0 mg/kg iv, 60 min
  DBP—diastolic blood pressure: 86.7 ± 10.7 mmHg
  SBP—systolic blood pressure: 109.8 ± 12.2 mmHg
[7]; 5 mg/kg iv, normotensive rats
  influence on the diastolic blood pressure: did not influence the diastolic blood pressure
